pIC50: −log10 of the molar value.
Biological target: α-glucosidase (EC 3.2.1.20, Saccharomyces cerevisiae type I)
Assay: enzyme inhibition with pNPG substrate, absorbance at […] nm
Format: biochemical

Compound: O=c1cc(-c2ccc(O)c(O)c2)oc2cc(O)cc(O)c12 [luteolin]
- pIC50: 4.79

— PMC10224510, “Luteolin and Vernodalol as Bioactive Compounds of Leaf and Root Vernonia amygdalina Extracts: Effects on α-Glucosidase, Glycation, ROS, Cell Viability, and In Silico ADMET Parameters” (Pharmaceutics, 2023)
